Laboratory results as given in patent publication US10570129B2 (Zoetis Services LLC, priority 2015, dated 2020).

How the values were obtained:
Haemonchus contortus L3 = experiment: microbe, parasite or virus in culture; assay type: cell-based; details: for minimal effective concentration: Haemonchus contortus, 96 h, read-out: HcL3 Minimal Effective Concentration (MEC)
D. immitis microfilariae = experiment: Dirofilaria immitis, microfilariae (DiMF) in vitro motility assay; assay type: cell-based; details: for minimal effective concentration: Dirofilaria immitis, 72 h, read-out: DiMF minimally effective dose (MEC)
[1] = system: Trichostrongylus colubriformis; experiment: Jird efficacy model; assay type: in vivo; details: for inhibition in vivo at 10 mg/kg: Trichostrongylus colubriformis, sc, 96 h, read-out: Jird % (percentage efficacy)

Structure (SMILES): O=C(NCc1ccnc(Cl)c1)n1c2c(c3cc(Cl)ccc31)CN(C/C=C/c1ccc(F)c(Cl)c1)CC2 [Example 239, (E)-8-chloro-2-(3-(3-chloro-4-fluorophenyl)allyl)-N-((2-chloropyridin-4-yl)methyl)-1,2,3,4-tetrahydro-5H-pyrido[4,3-b]indole-5-carboxamide]
- minimal effective concentration (Haemonchus contortus L3): 0.3 µM
- minimal effective concentration (D. immitis microfilariae): 3.3 µM
- inhibition in vivo at 10 mg/kg [1]: 98%

Structure (SMILES): N#Cc1ccc2c(c1)c1c(n2C(=O)NCc2ccnc(F)c2)CCN(C/C=C/c2cc(Br)ccc2F)C1 [Example 108, (E)-2-(3-(5-bromo-2-fluorophenyl)allyl)-8-cyano-N-((2-fluoropyridin-4-yl)methyl)-1,2,3,4-tetrahydro-5H-pyrido[4,3-b]indole-5-carboxamide]
- minimal effective concentration (Haemonchus contortus L3): 2.4 µM
- minimal effective concentration (D. immitis microfilariae): 3.2 µM
- inhibition in vivo at 10 mg/kg [1]: 100%

Structure (SMILES): N#Cc1cc(/C=C/CN2CCc3c(c4ccc(OC(F)(F)F)cc4n3C(=O)NCc3ccnc(Cl)c3)C2)ccc1F [Example 344, (E)-N-((2-chloropyridin-4-yl)methyl)-2-(3-(3-cyano-4-fluorophenyl)allyl)-7-(trifluoromethoxy)-1,2,3,4-tetrahydro-5H-pyrido[4,3-b]indole-5-carboxamide]
- minimal effective concentration (Haemonchus contortus L3): 0.5 µM
- minimal effective concentration (D. immitis microfilariae): 10 µM
- inhibition in vivo at 10 mg/kg [1]: 100%

Structure (SMILES): O=C(NCc1ccnc(Cl)c1)n1c2c(c3cc(F)c(Cl)cc31)CN(C/C=C/c1ccc(F)cc1)CC2 [Example 306, (E)-7-chloro-N-((2-chloropyridin-4-yl)methyl)-8-fluoro-2-(3-(4-fluorophenyl)allyl)-1,2,3,4-tetrahydro-5H-pyrido[4,3-b]indole-5-carboxamide]
- minimal effective concentration (Haemonchus contortus L3): 0.5 µM
- minimal effective concentration (D. immitis microfilariae): 12.7 µM
- inhibition in vivo at 10 mg/kg [1]: 98%

Structure (SMILES): CS(=O)(=O)c1ccc2c(c1)c1c(n2C(=O)NCc2ccnc(Cl)c2)CCN(C/C=C/c2ccc(F)cc2)C1 [Example 459, (E)-N-((2-chloropyridin-4-yl)methyl)-2-(3-(4-fluorophenyl)allyl)-8-(methylsulfonyl)-1,2,3,4-tetrahydro-5H-pyrido[4,3-b]indole-5-carboxamide]
- minimal effective concentration (Haemonchus contortus L3): 1 µM
- minimal effective concentration (D. immitis microfilariae): 5.7 µM
- inhibition in vivo at 10 mg/kg [1]: 92%

Structure (SMILES): O=C(NCc1ccnc(Cl)c1)n1c2c(c3ccc(Cl)cc31)CN(C/C=C/c1ccc(F)c(F)c1)CC2 [Example 211, (E)-7-chloro-N-((2-chloropyridin-4-yl)methyl)-2-(3-(3,4-difluorophenyl)allyl)-1,2,3,4-tetrahydro-5H-pyrido[4,3-b]indole-5-carboxamide]
- minimal effective concentration (Haemonchus contortus L3): 1 µM
- minimal effective concentration (D. immitis microfilariae): 10 µM
- inhibition in vivo at 10 mg/kg [1]: 100%

Structure (SMILES): O=C(NCc1ccnc(F)c1)n1c2c(c3ccc(OC(F)(F)F)cc31)CN(C/C=C/c1ccc(F)cc1F)CC2 [Example 374, (E)-2-(3-(2,4-difluorophenyl)allyl)-N-((2-fluoropyridin-4-yl)methyl)-7-(trifluoromethoxy)-1,2,3,4-tetrahydro-5H-pyrido[4,3-b]indole-5-carboxamide]
- minimal effective concentration (Haemonchus contortus L3): 5.7 µM
- minimal effective concentration (D. immitis microfilariae): 5.7 µM
- inhibition in vivo at 10 mg/kg [1]: 72%

Structure (SMILES): N#Cc1ccc2c(c1)c1c(n2C(=O)NCc2ccnc(F)c2)CCN(C/C=C/c2ccc(F)c(Br)c2)C1 [Example 109, (E)-2-(3-(3-bromo-4-fluorophenyl)allyl)-8-cyano-N-((2-fluoropyridin-4-yl)methyl)-1,2,3,4-tetrahydro-5H-pyrido[4,3-b]indole-5-carboxamide]
- minimal effective concentration (Haemonchus contortus L3): 1.22 µM
- minimal effective concentration (D. immitis microfilariae): 18.2 µM
- inhibition in vivo at 10 mg/kg [1]: 99%

Structure (SMILES): O=C(NCc1ccnc(F)c1)n1c2c(c3ccc(Cl)cc31)CN(C/C=C/c1ccc(F)c(F)c1)CC2 [Example 228, (E)-7-chloro-2-(3-(3,4-difluorophenyl)allyl)-N-((2-fluoropyridin-4-yl)methyl)-1,2,3,4-tetrahydro-5H-pyrido[4,3-b]indole-5-carboxamide]
- minimal effective concentration (Haemonchus contortus L3): 1.8 µM
- minimal effective concentration (D. immitis microfilariae): 3.3 µM
- inhibition in vivo at 10 mg/kg [1]: 98%

Structure (SMILES): O=C(NCc1ccnc(F)c1)n1c2c(c3ccc(OC(F)(F)F)cc31)CN(C/C=C/c1cc(F)c(F)c(F)c1)CC2 [Example 377, (E)-N-((2-fluoropyridin-4-yl)methyl)-7-(trifluoromethoxy)-2-(3-(3,4,5-trifluorophenyl)allyl)-1,2,3,4-tetrahydro-5H-pyrido[4,3-b]indole-5-carboxamide]
- minimal effective concentration (Haemonchus contortus L3): 0.3 µM
- minimal effective concentration (D. immitis microfilariae): 5.7 µM
- inhibition in vivo at 10 mg/kg [1]: 99%

Structure (SMILES): N#Cc1ccc2c(c1)c1c(n2C(=O)NCc2ccnc(F)c2)CCN(C/C=C/c2ccc(F)cc2F)C1 [Example 115, (E)-8-cyano-2-(3-(2,4-difluorophenyl)allyl)-N-((2-fluoropyridin-4-yl)methyl)-1,2,3,4-tetrahydro-5H-pyrido[4,3-b]indole-5-carboxamide]
- minimal effective concentration (Haemonchus contortus L3): 0.1 µM
- minimal effective concentration (D. immitis microfilariae): 3.3 µM
- inhibition in vivo at 10 mg/kg [1]: 100%

Structure (SMILES): O=C(NCc1ccnc(F)c1)n1c2c(c3cc(C(F)(F)F)ccc31)CN(C/C=C/c1ccc(F)c(Cl)c1)CC2 [Example 418, (E)-2-(3-(3-chloro-4-fluorophenyl)allyl)-N-((2-fluoropyridin-4-yl)methyl)-8-(trifluoromethyl)-1,2,3,4-tetrahydro-5H-pyrido[4,3-b]indole-5-carboxamide]
- minimal effective concentration (Haemonchus contortus L3): 3.3 µM
- minimal effective concentration (D. immitis microfilariae): 18.2 µM
- inhibition in vivo at 10 mg/kg [1]: 95%

Structure (SMILES): O=C(NCc1ccnc(Cl)c1)n1c2c(c3ccc(C(F)(F)F)cc31)CN(C/C=C/c1ccc(Cl)c(F)c1)CC2 [Example 152, (E)-2-(3-(4-chloro-3-fluorophenyl)allyl)-N-((2-chloropyridin-4-yl)methyl)-7-(trifluoromethyl)-1,2,3,4-tetrahydro-5H-pyrido[4,3-b]indole-5-carboxamide]
- minimal effective concentration (Haemonchus contortus L3): 1 µM
- minimal effective concentration (D. immitis microfilariae): 3.3 µM
- inhibition in vivo at 10 mg/kg [1]: 99%

Structure (SMILES): O=C(NCc1ccnc(Cl)c1)n1c2c(c3c(Br)cccc31)CN(C/C=C/c1ccc(Cl)cc1)CC2 [Example 444, (E)-9-bromo-2-(3-(4-chlorophenyl)allyl)-N-((2-chloropyridin-4-yl)methyl)-1,2,3,4-tetrahydro-5H-pyrido[4,3-b]indole-5-carboxamide]
- minimal effective concentration (Haemonchus contortus L3): 0.7 µM
- minimal effective concentration (D. immitis microfilariae): 2.4 µM
- inhibition in vivo at 10 mg/kg [1]: 100%

Structure (SMILES): N#Cc1ccc2c3c(n(C(=O)NCc4ccnc(Cl)c4)c2c1)CCN(C/C=C/c1ccc(Cl)c(Cl)c1)C3 [Example 35, (E)-N-((2-chloropyridin-4-yl)methyl)-7-cyano-2-(3-(3,4-dichlorophenyl)allyl)-1,2,3,4-tetrahydro-5H-pyrido[4,3-b]indole-5-carboxamide]
- minimal effective concentration (Haemonchus contortus L3): 3.3 µM
- minimal effective concentration (D. immitis microfilariae): 33 µM
- inhibition in vivo at 10 mg/kg [1]: 100%

Structure (SMILES): N#Cc1ccc2c3c(n(C(=O)NCc4ccnc(Cl)c4)c2c1)CCN(C/C=C/c1ccc(Cl)cc1F)C3 [Example 7, (E)-2-(3-(4-chloro-2-fluorophenyl)allyl)-N-((2-chloropyridin-4-yl)methyl)-7-cyano-1,2,3,4-tetrahydro-5H-pyrido[4,3-b]indole-5-carboxamide]
- minimal effective concentration (Haemonchus contortus L3): 2.4 µM
- minimal effective concentration (D. immitis microfilariae): 10 µM
- inhibition in vivo at 10 mg/kg [1]: 100%

Structure (SMILES): O=C(NCc1ccnc(Cl)c1)n1c2c(c3ccc(OC(F)(F)F)cc31)CN(C/C=C/c1ccc(F)c(F)c1)CC2 [Example 349, (E)-N-((2-chloropyridin-4-yl)methyl)-2-(3-(3,4-difluorophenyl)allyl)-7-(trifluoromethoxy)-1,2,3,4-tetrahydro-5H-pyrido[4,3-b]indole-5-carboxamide]
- minimal effective concentration (Haemonchus contortus L3): 1 µM
- minimal effective concentration (D. immitis microfilariae): 10 µM
- inhibition in vivo at 10 mg/kg [1]: 99%

Structure (SMILES): N#Cc1ccc2c3c(n(C(=O)NCc4ccnc(Cl)c4)c2c1)CCN(C/C=C/c1c(F)cc(F)cc1F)C3 [Example 9, (E)-N-((2-chloropyridin-4-yl)methyl)-7-cyano-2-(3-(2,4,6-trifluorophenyl)allyl)-1,2,3,4-tetrahydro-5H-pyrido[4,3-b]indole-5-carboxamide]
- minimal effective concentration (Haemonchus contortus L3): 7.6 µM
- minimal effective concentration (D. immitis microfilariae): 5.7 µM
- inhibition in vivo at 10 mg/kg [1]: 99%

Structure (SMILES): N#Cc1ccc2c(c1)c1c(n2C(=O)NCc2ccnc(F)c2)CCN(C/C=C/c2ccc(Cl)c(Cl)c2)C1 [Example 122, (E)-8-cyano-2-(3-(3,4-dichlorophenyl)allyl)-N-((2-fluoropyridin-4-yl)methyl)-1,2,3,4-tetrahydro-5H-pyrido[4,3-b]indole-5-carboxamide]
- minimal effective concentration (Haemonchus contortus L3): 1 µM
- minimal effective concentration (D. immitis microfilariae): 18.2 µM
- inhibition in vivo at 10 mg/kg [1]: 100%

Structure (SMILES): N#Cc1ccc2c3c(n(C(=O)NCc4ccnc(Cl)c4)c2c1)CCN(C/C=C/c1ccc(Cl)cc1Cl)C3 [Example 3, (E)-N-[(2-chloro-4-pyridyl)methyl]-7-cyano-2-[(E)-3-(2,4-dichlorophenyl)allyl]-3,4-dihydro-1H-pyrido[4,3-b]indole-5-carboxamide]
- HcL3 Minimal Effective Concentration (MEC) (Haemonchus contortus L3): 1.0 µM
- DiMF minimally effective dose (MEC) (D. immitis microfilariae; decrease in microfilariae motility by subjective visual assessment, observed at 72 hours): 18.2 µM
- Jird % (percentage efficacy) ([1]; Mongolian gerbil (jird) infected with T. colubriformis, 10 mg/kg subcutaneous, worm count approximately four days after dosing): 99%

Structure (SMILES): O=C(NCc1ccnc(F)c1)n1c2c(c3cc(C(F)(F)F)ccc31)CN(C/C=C/c1ccc(F)c(F)c1)CC2 [Example 419, (E)-2-(3-(3,4-difluorophenyl)allyl)-N-((2-fluoropyridin-4-yl)methyl)-8-(trifluoromethyl)-1,2,3,4-tetrahydro-5H-pyrido[4,3-b]indole-5-carboxamide]
- minimal effective concentration (Haemonchus contortus L3): 1 µM
- minimal effective concentration (D. immitis microfilariae): 10 µM
- inhibition in vivo at 10 mg/kg [1]: 100%

Structure (SMILES): O=C(NCc1ccnc(Cl)c1)n1c2c(c3cc(N4CCOCC4)ccc31)CN(C/C=C/c1ccc(Cl)c(F)c1)CC2 [Example 504, (E)-2-(3-(4-chloro-3-fluorophenyl)allyl)-N-((2-chloropyridin-4-yl)methyl)-8-morpholino-1,2,3,4-tetrahydro-5H-pyrido[4,3-b]indole-5-carboxamide]
- minimal effective concentration (Haemonchus contortus L3): 5.7 µM
- minimal effective concentration (D. immitis microfilariae): 10 µM
- inhibition in vivo at 10 mg/kg [1]: 100%
